pIC50: −log10 of the molar value. ≈ marks a conversion by molar mass, not a printed value. Where two headings read alike, the source gives them in different places.
How the values were obtained:
[1] = molecular target: T1, CYP450 2C9 (Homo sapiens, UniProt P11712); assay: CYP450 inhibition kit (drug-drug interaction), 2C9; type: biochemical
T1 construct: purchased BD Gentest (Franklin Lakes, NJ)
Method: (§1) Low IC50s against specific cytochrome P450 isoforms may indicate the potential for a harmful drug interaction to occur in vivo with substrates of that isoform. A lack of metabolic stability in vitro may indicate potential metabolic instability in vivo, and, therefore, a shorter half-life. Drug interaction potential was evaluated in vitro using BD Gentest (Franklin Lakes, NJ) CYP450 inhibition kits as recommended by the manufacturer. Metabolic stability assessments were conducted using in vitro liver microsomes. […] The reaction is started with the addition of 1 U/mL glucose-6-phosphate dehydrogenase G6PD. The mixture is incubated on a shaking platform at 37°C, and aliquots are taken and quenched with the addition of an equal volume of cold acetonitrile at 0, 10, 20, 30, and 60 min. Samples are centrifuged at 3700 rpm for […] at 20°C to remove debris. Sample quantification is carried out by LC/MS, and metabolic half-life is calculated by log plots of the total ion chromatograph area remaining.

[2] = test system: P. falciparum strain TM90C2A; assay: labeled hypoxanthine susceptibility assay, P. falciparum TM90C2A; type: cell-based, Plasmodium falciparum; conditions: for IC90: Plasmodium falciparum, TM90C2A; for CSI (C2A/W2): ratio of IC90 C2A to IC90 W2
Method: (§2) The in vitro activities of quinoline methanols against P. falciparum strains W2, D6, TM91C235, and TM90C2A were evaluated using the traditional labeled hypoxanthine assay of Desjardins et al as modified by Milhous et al. These four P. falciparum strains were selected since they have various levels of resistance to conventional anti-malarials.

[3] = molecular target: T2, CYP450 3A4 (Homo sapiens, UniProt P08684); assay: CYP450 inhibition kit (drug-drug interaction), 3A4; type: biochemical
T2 construct: purchased BD Gentest (Franklin Lakes, NJ)
T2 sequence (P08684 whole entry): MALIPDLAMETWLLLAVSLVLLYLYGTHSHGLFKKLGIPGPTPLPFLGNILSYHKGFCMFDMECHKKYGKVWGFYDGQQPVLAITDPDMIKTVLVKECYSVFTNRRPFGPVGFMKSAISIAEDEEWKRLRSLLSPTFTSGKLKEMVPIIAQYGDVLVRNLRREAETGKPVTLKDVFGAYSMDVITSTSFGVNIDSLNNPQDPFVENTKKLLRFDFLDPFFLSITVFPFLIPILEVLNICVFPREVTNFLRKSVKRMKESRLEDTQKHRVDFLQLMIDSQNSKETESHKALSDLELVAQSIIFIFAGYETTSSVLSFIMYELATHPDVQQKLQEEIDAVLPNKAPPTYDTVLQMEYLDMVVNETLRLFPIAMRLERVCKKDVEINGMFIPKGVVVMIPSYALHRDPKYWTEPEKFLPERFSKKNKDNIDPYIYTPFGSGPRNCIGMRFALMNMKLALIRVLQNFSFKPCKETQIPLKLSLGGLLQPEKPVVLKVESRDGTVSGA
Method: as §1

[4] = test system: P. falciparum strain D6; assay: labeled hypoxanthine susceptibility assay, P. falciparum D6; type: cell-based, Plasmodium falciparum; conditions: for IC90: Plasmodium falciparum
Method: as §2

[5] = molecular target: T3, A1 receptor (Homo sapiens, UniProt P30542); assay: inhibition of the A1 receptor at 200 nM; type: binding; conditions: duplicate
T3 construct: Caliper Biosciences (contract screen)
T3 sequence (P30542 1-326): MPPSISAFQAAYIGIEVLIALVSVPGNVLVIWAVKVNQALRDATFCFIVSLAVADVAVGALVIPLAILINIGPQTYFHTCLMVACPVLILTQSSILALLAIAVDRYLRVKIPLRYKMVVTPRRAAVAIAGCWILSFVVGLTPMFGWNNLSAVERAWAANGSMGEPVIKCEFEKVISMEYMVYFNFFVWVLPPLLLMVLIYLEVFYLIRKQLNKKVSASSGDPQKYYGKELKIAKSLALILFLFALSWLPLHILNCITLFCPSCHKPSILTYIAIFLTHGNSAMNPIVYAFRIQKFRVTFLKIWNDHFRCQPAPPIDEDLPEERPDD
Method: General cytotoxicity was assessed by first determining LC50 's against a rodent macrophage (RAW) cell line using the 3-(4,5-dimethylthiazole-2-yl)-2,5-diphenyltetrazolium bromide (MTT) assay as described in one of our earlier studies. This screen was conducted to identify compounds that may require de-selection due to generalized toxicity. […] In vitro neurocytotoxicity was assessed by determining LC50s against primary mouse neurons using the MTT assay as described previously. Inhibition of the A2A and A1 receptors was determined at 200 nM in duplicate by Caliper Biosciences (Hanover, Maryland).

[6] = molecular target: T4, CYP450 2D6 (Homo sapiens, UniProt P10635); assay: CYP450 inhibition kit (drug-drug interaction), 2D6; type: biochemical
T4 construct: purchased BD Gentest (Franklin Lakes, NJ)
T4 sequence (P10635 whole entry): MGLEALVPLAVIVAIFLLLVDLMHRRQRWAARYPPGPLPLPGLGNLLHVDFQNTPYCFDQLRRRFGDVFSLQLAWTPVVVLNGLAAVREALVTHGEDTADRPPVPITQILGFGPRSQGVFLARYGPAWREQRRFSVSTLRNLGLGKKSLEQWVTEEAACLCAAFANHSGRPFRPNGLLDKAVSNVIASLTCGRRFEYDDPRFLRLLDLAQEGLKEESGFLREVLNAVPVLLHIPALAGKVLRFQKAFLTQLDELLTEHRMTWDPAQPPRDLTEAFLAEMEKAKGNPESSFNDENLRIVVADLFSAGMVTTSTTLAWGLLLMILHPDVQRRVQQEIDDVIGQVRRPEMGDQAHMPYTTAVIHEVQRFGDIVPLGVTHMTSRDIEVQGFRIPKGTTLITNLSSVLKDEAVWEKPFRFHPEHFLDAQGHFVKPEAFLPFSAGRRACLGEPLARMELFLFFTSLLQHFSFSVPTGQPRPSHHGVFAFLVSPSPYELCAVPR
Method: as §1

[7] = molecular target: T5, CYP450 2C19 (Homo sapiens, UniProt P33261); assay: CYP450 inhibition kit (drug-drug interaction), 2C19; type: biochemical
T5 construct: purchased BD Gentest (Franklin Lakes, NJ)
T5 sequence (P33261 whole entry): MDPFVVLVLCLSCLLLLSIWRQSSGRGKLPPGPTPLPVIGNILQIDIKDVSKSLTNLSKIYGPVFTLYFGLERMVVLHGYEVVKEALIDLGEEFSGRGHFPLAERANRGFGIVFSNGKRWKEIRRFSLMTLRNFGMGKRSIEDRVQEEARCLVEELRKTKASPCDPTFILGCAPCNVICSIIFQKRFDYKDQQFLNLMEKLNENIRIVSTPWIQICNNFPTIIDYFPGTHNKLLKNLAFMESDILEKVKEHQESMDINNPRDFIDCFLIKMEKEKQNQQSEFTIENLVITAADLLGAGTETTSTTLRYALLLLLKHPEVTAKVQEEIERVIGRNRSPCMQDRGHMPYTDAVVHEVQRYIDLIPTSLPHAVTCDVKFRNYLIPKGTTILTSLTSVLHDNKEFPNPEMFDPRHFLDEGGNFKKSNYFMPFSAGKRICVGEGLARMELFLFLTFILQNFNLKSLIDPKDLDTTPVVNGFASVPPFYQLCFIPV
Method: as §1

[8] = test system: P. falciparum strain TM91C235; assay: labeled hypoxanthine susceptibility assay, P. falciparum TM91C235; type: cell-based, Plasmodium falciparum; conditions: Plasmodium falciparum
Method: as §2

[9] = in vitro; conditions: dog, MDCK-MDR1, pH 7.4
[10] = in vitro; conditions: mouse
[11] = read-out: Pf C2A IC90 nM values calculated using MW in Column C
[12] = D6, read-out: IC90 Pf D6, P. falciparum D6, mefloquine: historical mean +/- SD (n)
[13] = D6, read-out: PF D6 IC90, P. falciparum D6

T1 sequence (P11712 whole entry): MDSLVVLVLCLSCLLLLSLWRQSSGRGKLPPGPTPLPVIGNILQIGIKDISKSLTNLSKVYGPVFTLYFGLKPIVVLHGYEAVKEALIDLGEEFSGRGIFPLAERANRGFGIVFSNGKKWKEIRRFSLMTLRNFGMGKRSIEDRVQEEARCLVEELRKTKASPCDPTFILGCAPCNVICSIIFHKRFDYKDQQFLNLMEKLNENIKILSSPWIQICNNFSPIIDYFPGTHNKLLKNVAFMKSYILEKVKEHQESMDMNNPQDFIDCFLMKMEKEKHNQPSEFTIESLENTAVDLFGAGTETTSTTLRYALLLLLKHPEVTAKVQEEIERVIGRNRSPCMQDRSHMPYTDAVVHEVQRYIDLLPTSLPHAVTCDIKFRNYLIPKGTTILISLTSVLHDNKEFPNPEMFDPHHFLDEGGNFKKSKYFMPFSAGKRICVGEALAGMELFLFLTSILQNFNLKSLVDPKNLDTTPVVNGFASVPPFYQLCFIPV

CNCC(O)c1cc(C(F)(F)F)nc2c(C(F)(F)F)cccc12 (centres unmarked) [WR308245]
pIC50 [1]: < 4.40
IC90 ([2]; read-out: IC90 Pf C2A): 0.08 µg/mL
IC90 ([2]; read-out: IC90 PfC2A): 236 nM
IC90 ([2]; read-out: PF C2A IC90): 0.0798 µg/mL
IC90 [2, 11]: 236 nM
CSI (C2A/W2) [2]: 4.8
pIC50 [3]: 4.59
IC90 [4, 12]: 0.045 µg/mL (≈ 0.133 µM)
IC90 [4, 13]: 0.0452 µg/mL (≈ 0.134 µM)
inhibition at 0.2 µM [5]: 0%
pIC50 [6]: 5.13
pIC50 [7]: 4.48
IC90 ([8]; read-out: IC90 Pf C235): 0.058 µg/mL (≈ 0.171 µM)
IC90 ([8]; read-out: PF C235 IC90): 0.0576 µg/mL (≈ 0.17 µM)

CC(C)NCC(O)c1cc(C(F)(F)F)nc2c(C(F)(F)F)cccc12 (centres unmarked) [WR308257]
pIC50 [1]: 4.43
IC90 ([2]; read-out: IC90 Pf C2A): 0.039 µg/mL
IC90 ([2]; read-out: IC90 PfC2A): 107 nM
IC90 ([2]; read-out: PF C2A IC90): 0.0392 µg/mL
IC90 [2, 11]: 107 nM
CSI (C2A/W2) [2]: 8.4
pIC50 [3]: < 4.40
IC90 [4, 12]: 0.023 µg/mL (≈ 0.0628 µM)
IC90 [4, 13]: 0.0232 µg/mL (≈ 0.0634 µM)
inhibition at 0.2 µM [5]: 79%
Papp A→B at 2 h, 5 μM [9]: 25 ×10⁻⁶ cm/s
pIC50 [6]: 5.72
pIC50 [7]: 4.59
IC90 ([8]; read-out: IC90 Pf C235): 0.023 µg/mL (≈ 0.0628 µM)
IC90 ([8]; read-out: PF C235 IC90): 0.0234 µg/mL (≈ 0.0638 µM)

CSCCCNCC(O)c1cc(C(F)(F)F)nc2c(C(F)(F)F)cccc12 (centres unmarked) [WR308278]
pIC50 [1]: 5.20
IC90 ([2]; read-out: IC90 Pf C2A): 0.054 µg/mL
IC90 ([2]; read-out: IC90 PfC2A): 132 nM
IC90 ([2]; read-out: PF C2A IC90): 0.0544 µg/mL
IC90 [2, 11]: 132 nM
CSI (C2A/W2) [2]: 5.6
pIC50 [3]: 4.80
IC90 [4, 12]: 0.036 µg/mL (≈ 0.0873 µM)
IC90 [4, 13]: 0.0363 µg/mL (≈ 0.0881 µM)
inhibition at 0.2 µM [5]: 9.4%
pIC50 [6]: 5.85
pIC50 [7]: 5.44
IC90 ([8]; read-out: IC90 Pf C235): 0.039 µg/mL (≈ 0.0946 µM)
IC90 ([8]; read-out: PF C235 IC90): 0.0393 µg/mL (≈ 0.0953 µM)

OC(CNCCNCc1ccccc1)c1cc(C(F)(F)F)nc2c(C(F)(F)F)cccc12 (centres unmarked) [WR308396]
pIC50 [1]: 4.85
IC90 ([2]; read-out: IC90 Pf C2A): 0.048 µg/mL
IC90 ([2]; read-out: IC90 PfC2A): 105 nM
IC90 ([2]; read-out: PF C2A IC90): 0.048 µg/mL
IC90 [2, 11]: 105 nM
CSI (C2A/W2) [2]: 7.7
pIC50 [3]: 5.48
IC90 Pf D6 ([4]; P. falciparum D6, mefloquine: historical mean +/- SD (n)): 0.029 µg/mL (≈ 0.0634 µM)
IC90 [4, 12]: 0.03 µg/mL (≈ 0.0656 µM)
IC90 [4, 13]: 0.0293 µg/mL (≈ 0.0639 µM)
CC50 [10]: 8.28 µg/mL (≈ 18.1 µM)
inhibition at 0.2 µM [5]: 2.9%
pIC50 [6]: 6.15
pIC50 [7]: 5.24
IC90 ([8]; read-out: IC90 Pf C235): 0.04 µg/mL (≈ 0.0874 µM)
IC90 ([8]; read-out: PF C235 IC90): 0.0401 µg/mL (≈ 0.0877 µM)

— PMC2833169, “Anti-malarial activity of a non-piperidine library of next-generation quinoline methanols” (Malaria Journal, 2010)
